This assay relates to BDF1 mice, intracerebral B16 melanoma, median survival T/C. Description: NCI In Vivo Anticancer Drug Screen. Data for tumor model B16 Melanoma (intracerebral) in B6D2F1 (BDF1) mice. The note with it: endpoint: median survival time, higher = longer survival. Here is the method: The antitumor activity of compounds was measured in mice bearing transplantable tumors. Survival or tumor size were measured and the results are expressed as the measurement made in the treated group (T) divided by the measurement made in the vehicle treated control group (C). The tumor model used in this assay is B16 Melanoma (intracerebral) in B6D2F1 (BDF1) mice

[1] abbreviates: dose: 17.8 mg/kg/injection, schedule: Q01DX001 (ip), vehicle: Klucel (hydroxypropylcellulose) (HPC).
The mark [2] stands for this setting: dose: 26.7 mg/kg/injection, schedule: Q01DX001 (ip), vehicle: Klucel (hydroxypropylcellulose) (HPC).
The mark [3] stands for this setting: dose: 40.0 mg/kg/injection, schedule: Q01DX001 (ip), vehicle: Klucel (hydroxypropylcellulose) (HPC).
[4] abbreviates: dose: 60.0 mg/kg/injection, schedule: Q01DX001 (ip), vehicle: Klucel (hydroxypropylcellulose) (HPC).
Where [5] appears, read: dose: 2.0 mg/kg/injection, schedule: Q01DX009 (ip), vehicle: saline with Tween-80.
The mark [6] stands for this setting: dose: 4.0 mg/kg/injection, schedule: Q01DX009 (ip), vehicle: saline with Tween-80.
Setting [7] is: dose: 8.0 mg/kg/injection, schedule: Q01DX009 (ip), vehicle: saline with Tween-80.
Setting [8] is: dose: 16.0 mg/kg/injection, schedule: Q01DX009 (ip), vehicle: saline with Tween-80.
Where [9] appears, read: dose: 128.0 mg/kg/injection, schedule: Q01DX009 (ip), vehicle: Klucel (hydroxypropylcellulose) (HPC).
Where [10] appears, read: dose: 256.0 mg/kg/injection, schedule: Q01DX009 (ip), vehicle: Klucel (hydroxypropylcellulose) (HPC).

Each structure is given as a SMILES string. Where “and” joins values, the source holds several entries; their conditions need not be identical. Equal entries are not always repeated. Toxic doses and inconclusive results are not listed.

We go through twelve compounds from PubChem BioAssay AID196 (DTP/NCI, 2004).

As for `O=NN(CCCl)C(=O)NC1OC(CO)C(O)C(O)C1O` (stereo unspecified), the T/C was 112 % of control (dose: 0.31 mg/kg/injection, schedule: Q01DX009 (ip), vehicle: saline); 109 % of control (dose: 0.62 mg/kg/injection, schedule: Q01DX009 (ip), vehicle: saline); 115 % of control (dose: 1.25 mg/kg/injection, schedule: Q01DX009 (ip), vehicle: saline); 106 % of control (dose: 2.5 mg/kg/injection, schedule: Q01DX009 (ip), vehicle: saline); 122 % of control (dose: 5.0 mg/kg/injection, schedule: Q01DX009 (ip), vehicle: saline).

As to `CC(=O)NNC(=O)c1ccccn1`, the T/C is, setting by setting: (dose: 100.0 mg/kg/injection, schedule: Q01DX005 (ip), vehicle: Klucel (hydroxypropylcellulose) (HPC)) 104 % of control and 108 % of control; (dose: 200.0 mg/kg/injection, schedule: Q01DX005 (ip), vehicle: Klucel (hydroxypropylcellulose) (HPC)) 100 % of control.

For `CC(=O)OC1COC(NC(=O)N(CCCl)N=O)C(OC(C)=O)C1OC(C)=O` (stereo unspecified), the T/C is 104 % of control (dose: 0.18 mg/kg/injection, schedule: Q01DX009 (ip), vehicle: saline); 104 % of control (dose: 0.37 mg/kg/injection, schedule: Q01DX009 (ip), vehicle: saline); 113 % of control (dose: 0.75 mg/kg/injection, schedule: Q01DX009 (ip), vehicle: saline); 113 % of control (dose: 1.5 mg/kg/injection, schedule: Q01DX009 (ip), vehicle: saline).

In the case of `O=NN(CCF)C(=O)NC1CCCCC1`, the T/C reads like this: (dose: 5.1 mg/kg/injection, schedule: Q01DX001 (ip), vehicle: other) 107 % of control; (dose: 10.2 mg/kg/injection, schedule: Q01DX001 (ip), vehicle: other) 112 % of control; (dose: 13.0 mg/kg/injection, schedule: Q01DX001 (ip), vehicle: Klucel (hydroxypropylcellulose) (HPC)) 104 % of control; under setting [1], 111 % of control; (dose: 21.6 mg/kg/injection, schedule: Q01DX001 (ip), vehicle: Klucel (hydroxypropylcellulose) (HPC)) 174 % of control; under setting [2], 115 % of control. For the same compound, the T/C under setting [3] is 180 % of control; the T/C (dose: 43.2 mg/kg/injection, schedule: Q01DX001 (ip), vehicle: other) is 180 % of control; the T/C under setting [4] is 168 % of control and 269 % of control; the T/C (dose: 90.0 mg/kg/injection, schedule: Q01DX001 (ip), vehicle: Klucel (hydroxypropylcellulose) (HPC)) is 263 % of control; the T/C (dose: 162.8 mg/kg/injection, schedule: Q01DX001 (ip), vehicle: other) is 235 % of control.

For the compound `O=NN(CCF)C(=O)NC1C(O)CCCC1O` (stereo unspecified), the T/C reads like this: (dose: 13.0 mg/kg/injection, schedule: Q01DX001 (ip), vehicle: saline) 115 % of control; under setting [1], 120 % of control; (dose: 21.6 mg/kg/injection, schedule: Q01DX001 (ip), vehicle: saline) 111 % of control; under setting [3], 160 % of control; under setting [4], 171 % of control; (dose: 60.0 mg/kg/injection, schedule: Q01DX001 (ip), vehicle: saline) 189 % of control.

As to `O=NN(CCCl)C(=O)NC1CCC(=O)NC1=O` (stereo unspecified), the T/C reads like this: (dose: 0.5 mg/kg/injection, schedule: Q01DX009 (ip), vehicle: saline with Tween-80) 108 % of control; under setting [5], 153 % of control; under setting [6], 202 % of control; (dose: 4.32 mg/kg/injection, schedule: Q01DX001 (ip), vehicle: Klucel (hydroxypropylcellulose) (HPC)) 111 % of control; (dose: 6.48 mg/kg/injection, schedule: Q01DX001 (ip), vehicle: other) 120 % of control; (dose: 7.2 mg/kg/injection, schedule: Q01DX001 (ip), vehicle: Klucel (hydroxypropylcellulose) (HPC)) 122 % of control. Moreover, the T/C under setting [7] is 337 % of control; the T/C (dose: 11.9 mg/kg/injection, schedule: Q01DX001 (ip), vehicle: Klucel (hydroxypropylcellulose) (HPC)) is 172 % of control; the T/C (dose: 12.0 mg/kg/injection, schedule: Q01DX001 (ip), vehicle: Klucel (hydroxypropylcellulose) (HPC)) was 150 % of control; the T/C under setting [8] was 89 % of control; the T/C under setting [1] was 201 % of control; the T/C (dose: 18.0 mg/kg/injection, schedule: Q01DX001 (ip), vehicle: other) is 338 % of control. The T/C by setting is: (dose: 20.0 mg/kg/injection, schedule: Q01DX001 (ip), vehicle: Klucel (hydroxypropylcellulose) (HPC)) 204 % of control; under setting [2], 187 % of control; under setting [3], 120 % of control.

Regarding `CN(C)N=Nc1ccnc2c(Cl)cccc12`, the T/C is 110 % of control (dose: 3.12 mg/kg/injection, schedule: Q01DX009 (ip), vehicle: other); 116 % of control (dose: 6.25 mg/kg/injection, schedule: Q01DX009 (ip), vehicle: other); 110 % of control (dose: 12.5 mg/kg/injection, schedule: Q01DX009 (ip), vehicle: other); 108 % of control (dose: 25.0 mg/kg/injection, schedule: Q01DX009 (ip), vehicle: other); 112 % of control (dose: 50.0 mg/kg/injection, schedule: Q01DX009 (ip), vehicle: other).

On to `COCC(O)Cn1ccnc1[N+](=O)[O-]` (stereo unspecified), for which the T/C is, setting by setting: under setting [9], 89 % of control; under setting [10], 86 % of control.

With `CN(N=O)C(=O)N[C@@H](C=O)[C@@H](O)[C@H](O)[C@H](O)CO`, the T/C was 101 % of control (dose: 0.12 mg/kg/injection, schedule: Q01DX009 (ip), vehicle: citric acid); 94 % of control (dose: 0.25 mg/kg/injection, schedule: Q01DX009 (ip), vehicle: citric acid); 104 % of control (dose: 0.5 mg/kg/injection, schedule: Q01DX009 (ip), vehicle: citric acid); 102 % of control (dose: 1.0 mg/kg/injection, schedule: Q01DX009 (ip), vehicle: citric acid); 102 % of control (dose: 2.0 mg/kg/injection, schedule: Q01DX009 (ip), vehicle: citric acid); 102 % of control (dose: 5.0 mg/kg/injection, schedule: Q01DX009 (ip), vehicle: citric acid). The T/C is 108 % of control (dose: 10.0 mg/kg/injection, schedule: Q01DX009 (ip), vehicle: citric acid) and 94 % of control (dose: 0.12 micrograms/kg/injection, schedule: Q01DX009 (ip), vehicle: citric acid).

In the case of `CN(C)N=Nc1ccc([N+](=O)[O-])cc1C(N)=O`, the T/C was 100 % of control (dose: 16.0 mg/kg/injection, schedule: Q01DX005 (ip), vehicle: saline with Tween-80); 105 % of control (dose: 32.0 mg/kg/injection, schedule: Q01DX005 (ip), vehicle: saline with Tween-80); 110 % of control (dose: 64.0 mg/kg/injection, schedule: Q01DX005 (ip), vehicle: saline with Tween-80); 107 % of control (dose: 128.0 mg/kg/injection, schedule: Q01DX005 (ip), vehicle: saline with Tween-80).

Regarding `CCC(=O)O[C@H]1CC[C@H]2[C@@H]3CC[C@H]4CC(=O)[C@H](C)C[C@]4(C)[C@H]3CC[C@]12C`, the T/C reads like this: (dose: 8.0 mg/kg/injection, schedule: Q01DX009 (ip), vehicle: Klucel (hydroxypropylcellulose) (HPC)) 100 % of control; (dose: 16.0 mg/kg/injection, schedule: Q01DX009 (ip), vehicle: Klucel (hydroxypropylcellulose) (HPC)) 94 % of control; (dose: 32.0 mg/kg/injection, schedule: Q01DX009 (ip), vehicle: Klucel (hydroxypropylcellulose) (HPC)) 105 % of control; (dose: 64.0 mg/kg/injection, schedule: Q01DX009 (ip), vehicle: Klucel (hydroxypropylcellulose) (HPC)) 100 % of control; under setting [9], 101 % of control; under setting [10], 103 % of control. Besides, the T/C (dose: 512.0 mg/kg/injection, schedule: Q01DX009 (ip), vehicle: Klucel (hydroxypropylcellulose) (HPC)) was 94 % of control.

Take `CCN(CC)CCCC(C)Nc1c2ccc(Cl)cc2nc2ccc(OC)cc12` (stereo unspecified): the T/C is 96 % of control (dose: 1.0 mg/kg/injection, schedule: Q01DX009 (ip), vehicle: saline with Tween-80); 151 % of control under setting [5]; 122 % of control under setting [6]; 105 % of control and 107 % of control under setting [7]; 105 % of control under setting [8]; 105 % of control (dose: 32.0 mg/kg/injection, schedule: Q01DX009 (ip), vehicle: saline with Tween-80). In addition, for the setting “dose: 64.0 mg/kg/injection, schedule: Q01DX009 (ip), vehicle: saline with Tween-80”, the T/C is 112 % of control.
